What is called IC50 is the concentration that inhibits the measured activity by half.

In one experiment the test system is PC3 cells. The experiment is described as follows: Cell-based proliferation assay, PC3. Particulars: Homo sapiens, PC-3, 96 h treatment, Celltiter96 Aqueous One Solution. How it is done: Human cancer cell lines PC3 and DU145 (human prostate cancer cell lines), were obtained from ATCC. They were cultured in the media according to the ATCC work instructions. PC3 and DU145 cells were seeded at 1,000 cells per well in 96-well plates, respectively. The plates were incubated at 37° C., 5% CO2, for 24 h. Cells were treated with compounds at various concentrations for 96 h. Cell proliferation was then quantified using Celltiter96 Aqueous One Solution Cell Proliferation Assay from Promega (Madison Wis.). Dose response curves were plotted to determine IC50 values for the compounds using XL-fit (ID Business Solution, Emeryville, Calif.).

For a further experiment, the target named is T1, Truncated mTOR kinase (Homo sapiens, UniProt P42345).
T1 construct: Truncated mTOR kinase and His-tagged 4eBP1 were produced in-house
The experiment is described as follows: mTOR Assay (radiometric phosphorylation of 4eBP1). The format is biochemical. Particulars: 4eBP1 substrate, 10 μM ATP, 1 hour at room temperature. The procedure:
Truncated mTOR kinase and His-tagged 4eBP1 were produced in-house. [γ^33P]-ATP was purchased from Amersham (GE Healthcare). All chemicals, unless otherwise stated, were from Sigma-Aldrich.
Phosphorylation assays were initially performed in a final volume of 20 μL in 384-well polypropylene plate (Greiner). […] The reaction was initiated by adding 10 μL/well of 20 μM ATP solution (final assay concentration 10 μM ATP and 0.4 μCi/well of [γhu 33P]-ATP). After 1 hour incubation at room temperature, the reaction was terminated with 40 μL/well of 20 mM EDTA/1 mM ATP solution.
50 μL/well of the stopped reaction mix was then transferred to 384-well MultiScreenHTS-PH filter plate (Millipore) pre-added with 50 μL/well of 1% phosphoric acid. The plate was washed 4 times with 120 μL/well of 0.5% phosphoric acid via vacuum filtration. Finally, 10 μL/well of Optiphase™ SuperMix liquid scintillation cocktail (Perkin Elmer) was added. After minimum 1 hour of incubation, counting was performed in a Wallac MicroBeta TriLux scintillation counter using coincidence counting mode with crosstalk correction.

Experiment [1] deals with T2, Recombinant PI3K p110α/p85 (Homo sapiens, UniProt P42336).
T2 construct: made in house
Description: PI3K Assay (radiometric lipid kinase assay). The format is biochemical. Particulars: p110α/p85, 2 μM ATP, 1 hour at RT; read-out: IC50 (PI3Kα). The procedure:
Recombinant PI3K p110α/p85 was prepared in-house. Phosphatidylinositol (PtdIns), phosphotidylserine (PtdSer) and all other unspecified chemicals were purchased from Sigma-Aldrich. [γ^33P]ATP and Optiphase scintillant were obtained from Perkin Elmer.
Assays were performed in a final assay volume of 25 μL in 384-well Maxisorp plates (Nunc). […] Maxisorp plates were coated with 20 μL/well of a 1:1 mixture of PtdIns and PtdSer [0.1 mg/mL each dissolved in chloroform:ethanol (3:7)] and left overnight in a fume hood at room temperature (RT) to dry.
The reaction was incubated for 1 hour at RT and terminated with 30 μL/well of 50 mM EDTA solution. The plate was then washed twice with TBS, dried, and added with 30 μL/well of scintillant before it was counted in a MicroBeta Trilux.

The test system of experiment [2] is human breast cancer cell lines. The following applies: two of eight human breast cancer cell lines, resistant; cited from earlier work.
A further experiment concerns human cancer cell lines. Particulars: different human cancer cell lines in vitro and xenograft models in vivo; read-out: IC50 (anti-neoplastic activity); cited from earlier work.

T2 sequence (P42336 whole entry): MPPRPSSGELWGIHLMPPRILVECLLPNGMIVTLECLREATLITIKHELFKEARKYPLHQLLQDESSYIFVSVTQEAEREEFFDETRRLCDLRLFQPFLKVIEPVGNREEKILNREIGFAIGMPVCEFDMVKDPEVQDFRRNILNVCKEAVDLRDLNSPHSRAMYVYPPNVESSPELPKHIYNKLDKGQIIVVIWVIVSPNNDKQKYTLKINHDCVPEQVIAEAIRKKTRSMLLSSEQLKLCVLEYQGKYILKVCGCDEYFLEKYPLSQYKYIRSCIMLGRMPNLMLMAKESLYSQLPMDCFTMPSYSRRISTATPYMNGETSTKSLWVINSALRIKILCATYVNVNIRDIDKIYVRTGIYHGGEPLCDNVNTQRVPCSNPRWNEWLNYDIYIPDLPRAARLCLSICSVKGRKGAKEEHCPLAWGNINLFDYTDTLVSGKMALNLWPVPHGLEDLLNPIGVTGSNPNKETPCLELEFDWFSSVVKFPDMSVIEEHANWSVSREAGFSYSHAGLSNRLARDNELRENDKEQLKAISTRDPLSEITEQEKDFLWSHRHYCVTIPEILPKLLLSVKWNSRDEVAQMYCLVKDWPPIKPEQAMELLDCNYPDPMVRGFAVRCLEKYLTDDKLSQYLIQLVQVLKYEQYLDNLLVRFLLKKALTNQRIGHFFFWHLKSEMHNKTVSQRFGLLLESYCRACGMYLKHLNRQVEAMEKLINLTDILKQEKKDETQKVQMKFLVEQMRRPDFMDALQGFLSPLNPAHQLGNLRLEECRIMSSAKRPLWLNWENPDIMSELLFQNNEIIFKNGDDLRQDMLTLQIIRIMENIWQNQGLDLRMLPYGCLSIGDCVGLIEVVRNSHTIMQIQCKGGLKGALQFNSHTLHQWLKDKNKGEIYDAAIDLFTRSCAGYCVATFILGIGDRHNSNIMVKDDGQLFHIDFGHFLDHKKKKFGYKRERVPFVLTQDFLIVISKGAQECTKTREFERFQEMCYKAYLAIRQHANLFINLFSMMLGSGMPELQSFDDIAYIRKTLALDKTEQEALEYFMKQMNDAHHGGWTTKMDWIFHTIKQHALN
T2 sequence (P27986 whole entry partner): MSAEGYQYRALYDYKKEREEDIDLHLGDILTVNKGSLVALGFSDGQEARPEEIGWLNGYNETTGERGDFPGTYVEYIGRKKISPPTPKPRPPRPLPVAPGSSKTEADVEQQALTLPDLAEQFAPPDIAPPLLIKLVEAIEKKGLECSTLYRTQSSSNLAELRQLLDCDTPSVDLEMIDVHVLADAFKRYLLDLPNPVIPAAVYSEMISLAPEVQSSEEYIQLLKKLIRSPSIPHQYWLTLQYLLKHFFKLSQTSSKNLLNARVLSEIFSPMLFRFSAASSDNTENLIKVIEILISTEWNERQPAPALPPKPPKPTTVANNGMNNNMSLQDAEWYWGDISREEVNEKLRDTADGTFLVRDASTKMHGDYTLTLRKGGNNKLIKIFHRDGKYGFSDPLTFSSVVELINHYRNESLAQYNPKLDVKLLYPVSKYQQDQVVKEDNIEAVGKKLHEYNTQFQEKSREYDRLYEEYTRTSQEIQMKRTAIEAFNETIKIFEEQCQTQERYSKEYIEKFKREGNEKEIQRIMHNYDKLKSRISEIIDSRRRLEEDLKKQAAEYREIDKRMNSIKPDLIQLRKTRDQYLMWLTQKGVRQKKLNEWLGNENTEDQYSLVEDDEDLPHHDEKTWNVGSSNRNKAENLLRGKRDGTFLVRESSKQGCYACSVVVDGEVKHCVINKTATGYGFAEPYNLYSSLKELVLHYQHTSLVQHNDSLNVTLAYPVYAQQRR
T1 sequence (P42345 2156-2549 limits assumed): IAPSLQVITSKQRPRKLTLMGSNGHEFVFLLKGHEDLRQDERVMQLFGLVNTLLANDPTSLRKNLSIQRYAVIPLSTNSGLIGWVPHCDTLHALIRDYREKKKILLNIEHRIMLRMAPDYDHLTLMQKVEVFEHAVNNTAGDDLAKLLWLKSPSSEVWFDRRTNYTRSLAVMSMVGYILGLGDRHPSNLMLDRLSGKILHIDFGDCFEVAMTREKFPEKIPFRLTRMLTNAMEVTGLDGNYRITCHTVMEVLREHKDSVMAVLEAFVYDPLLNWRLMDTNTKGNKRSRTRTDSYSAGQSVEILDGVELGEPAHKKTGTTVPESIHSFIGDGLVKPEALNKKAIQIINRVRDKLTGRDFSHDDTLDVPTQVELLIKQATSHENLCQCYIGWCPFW

On to `CCC(C)n1c(Br)nc2c(-c3cnc(N)nc3)nc(N3CCOCC3)nc21` (stereo not drawn) [Compound 42, 5-(8-Bromo-9-sec-butyl-2-morpholin-4-yl-9H-purin-6-yl)-pyrimidin-2-ylamine], for which the half-maximal inhibitory concentration (IC50) in the experiment on PC3 cells is no more than 1000 nM.
With `Nc1ncc(-c2nc(N3CCOCC3)nc3c2ncn3-c2ccccc2)cn1` [Compound 38], the 50% inhibitory concentration (IC50) (on Truncated mTOR kinase; in experiment [1]) was less than 1000 nM each time.
Turning to `c1ccc(Cn2cnc3c(-c4cncnc4)nc(N4CCOCC4)nc32)cc1` [Compound 4], the 50% inhibitory concentration (IC50) against Truncated mTOR kinase is greater than 5000 nM; in experiment [1], less than 1000 nM.
On the same counts, the results for `Cc1cccc(-n2cnc3c(-c4cnc(N)nc4)nc(N4CCOCC4)nc32)c1` [Compound 27, 5-(2-morpholin-4-yl-9-m-tolyl-9H-purin-6-yl)-pyrimidin-2-yl-amine] are less than 1000 nM and less than 1000 nM.
As for `CCC(C)n1cnc2c(-c3cncnc3)nc(N3CCOCC3)nc21` (stereo not drawn) [Compound 6], the IC50 was 1000 to 5000 nM at Truncated mTOR kinase and less than 1000 nM in experiment [1].
Take `CC(C)(C)OC(=O)N1CCC(n2cnc3c(-c4cnc(N)nc4)nc(N4CCOCC4)nc32)CC1` [Compound 19]: the IC50 on Truncated mTOR kinase was less than 1000 nM; in experiment [1], less than 1000 nM; with PC3 cells it was no more than 1000 nM.
As for `CCC(C)n1cnc2c(-c3cnc(N)nc3)nc(N3CCOC[C@@H]3C)nc21` (stereo partly drawn) [Compound 35], the 50% inhibitory concentration (IC50) in experiment [1] was less than 1000 nM.
Regarding `CC(COC(C)(C)C)n1cnc2c(-c3cnc(N)nc3)nc(N3CCOCC3)nc21` (stereo not drawn) [Compound 5], the half-maximal inhibitory concentration (IC50) was 1000 to 5000 nM against Truncated mTOR kinase and less than 1000 nM in experiment [1].
Take `CO[C@H]1C[C@@H]2CC[C@@H](C)[C@@](O)(O2)C(=O)C(=O)N2CCCC[C@H]2C(=O)O[C@H]([C@H](C)C[C@@H]2CC[C@@H](OC(=O)C(C)(CO)CO)[C@H](OC)C2)CC(=O)[C@H](C)/C=C(\C)[C@@H](O)[C@@H](OC)C(=O)[C@H](C)C[C@H](C)/C=C/C=C/C=C/1C` [CCI-779]: in experiment [2], the IC50 is greater than 1000 nM.
Consider `Nc1ncc(-c2nc(N3CCOCC3)nc3c2ncn3C2CCCC2)cn1` [Compound 7], for which the IC50 (on Truncated mTOR kinase; in experiment [1]) was less than 1000 nM in each case.
Regarding `CCC(C)n1cnc2c(-c3cnc(N)nc3)nc(N3CCOCC3C)nc21` (stereo not drawn) [Compound 35], the figures for the IC50 against Truncated mTOR kinase and in the experiment on PC3 cells were less than 1000 nM and no more than 1000 nM, respectively.
On to `CCC(C)n1cnc2c(-c3cnc(NC)nc3)nc(N3CCOCC3)nc21` (stereo not drawn) [Compound 20], for which the IC50 (on Truncated mTOR kinase; in experiment [1]) was less than 1000 nM throughout.
In the case of `Cc1nc(N)ncc1-c1nc(N2CCOCC2)nc2c1ncn2C(C)C1CC1` (stereo not drawn) [Compound 15], the IC50 at Truncated mTOR kinase was greater than 5000 nM; in experiment [1] it was less than 1000 nM.
As to `CC(C)(C)Cn1cnc2c(-c3cnc(N)nc3)nc(N3CCOCC3)nc21` [Compound 29], the IC50 against Truncated mTOR kinase was less than 1000 nM; in experiment [1] it was less than 1000 nM; in the experiment on PC3 cells, no more than 1000 nM.
Take `Nc1ncc(-c2nc(N3CCOCC3)nc3c2ncn3C2CCN(C(=O)c3ccccc3)C2)cn1` (stereo not drawn) [Compound 32]: the IC50 (against Truncated mTOR kinase; in experiment [1]) was less than 1000 nM each time.
In the case of `CCC(C#N)n1cnc2c(-c3cnc(N)nc3)nc(N3CCOCC3)nc21` (stereo not drawn) [Compound 23], the half-inhibitory concentration (IC50) against Truncated mTOR kinase is less than 1000 nM; in experiment [1] it was less than 1000 nM; in the experiment on PC3 cells it was no more than 1000 nM.
For the compound `Nc1ncc(-c2nc(N3CCOCC3)nc3c2ncn3C2Cc3ccccc3C2)cn1` [Compound 31], the 50% inhibitory concentration (IC50) (against Truncated mTOR kinase; in experiment [1]) was less than 1000 nM each time.
As to `COc1nc(N)ncc1-c1nc(N2CCOCC2)nc2c1ncn2C(C)C1CC1` (stereo not drawn) [Compound 11], the IC50 on Truncated mTOR kinase was 1000 to 5000 nM; in experiment [1], less than 1000 nM.
Take `CC1CCC(n2cnc3c(-c4cnc(N)nc4)nc(N4CCOCC4)nc32)C1` (mixture of isomers) [Compound 37]: the concentration for half-maximal inhibition (IC50) at Truncated mTOR kinase was less than 1000 nM; in experiment [1] it was less than 1000 nM; with PC3 cells, no more than 1000 nM.
Turning to `Nc1ncc(-c2nc(N3CCOCC3)nc3c2ncn3Cc2c(F)cccc2F)cn1` [Compound 1], the 50% inhibitory concentration (IC50) at Truncated mTOR kinase is 1000 to 5000 nM; in experiment [1], less than 1000 nM.
On the same counts, the results for `CC1CCC(n2cnc3c(-c4cnc(N)nc4)nc(N4CCOCC4)nc32)CC1` (stereo not drawn) [Compound 36] are less than 1000 nM and less than 1000 nM.
With `CC(c1ccccc1)n1cnc2c(-c3cnc(N)nc3)nc(N3CCOCC3)nc21` (stereo not drawn) [Compound 9], the half-inhibitory concentration (IC50) is 1000 to 5000 nM at Truncated mTOR kinase and less than 1000 nM in experiment [1].
On to `COCC(C)n1cnc2c(-c3cnc(N)nc3)nc(N3CCOCC3)nc21` (stereo not drawn) [Compound 12], for which the half-inhibitory concentration (IC50) (against Truncated mTOR kinase; in experiment [1]) was less than 1000 nM throughout.
For the compound `CCC(C)n1cnc2c(-c3cnc(N)nc3C)nc(N3CCOCC3)nc21` (stereo not drawn) [Compound 14], the figures for the 50% inhibitory concentration (IC50) (on Truncated mTOR kinase; in experiment [1]) were greater than 5000 nM and less than 1000 nM, respectively.
Consider `CC(C)C(C)n1cnc2c(-c3cnc(N)nc3)nc(N3CCOCC3)nc21` (stereo not drawn) [Compound 22], for which the IC50 against Truncated mTOR kinase is less than 1000 nM; in experiment [1] it was less than 1000 nM; in the experiment on PC3 cells it was no more than 1000 nM.
For `CC(C1CC1)n1cnc2c(-c3cnc(N)nc3)nc(N3CCOCC3)nc21` (stereo not drawn) [Compound 10], the 50% inhibitory concentration (IC50) against Truncated mTOR kinase was less than 1000 nM; in experiment [1], less than 1000 nM; with PC3 cells, no more than 1000 nM.
Consider `CCCC(=O)N1CCC(n2cnc3c(-c4cnc(N)nc4)nc(N4CCOCC4)nc32)CC1` [Compound 21], for which the results for the IC50 (against Truncated mTOR kinase; in experiment [1]; in the experiment on PC3 cells) were less than 1000 nM, less than 1000 nM and no more than 1000 nM, respectively.
For `CC[C@@H](C)n1cnc2c(-c3cnc(N)nc3)nc(N3CCOCC3)nc21` [Compound 25], in the experiment with PC3 cells, the IC50 is no more than 1000 nM.
Turning to `CCC(C)n1cnc2c(-c3cnc(N)nc3OC)nc(N3CCOCC3)nc21` (stereo not drawn) [Compound 8], the IC50 (against Truncated mTOR kinase; in experiment [1]) was less than 1000 nM in each case.
In the case of `COCC(C)n1cnc2c(-c3cnc(N)nc3C)nc(N3CCOCC3)nc21` (stereo not drawn) [Compound 16], the half-maximal inhibitory concentration (IC50) on Truncated mTOR kinase was greater than 5000 nM; in experiment [1] it was less than 1000 nM.
Consider `Nc1ncc(-c2nc(N3CCOCC3)nc3c2ncn3[C@H]2CCOC2)cn1` [Compound 18], for which the IC50 in experiment [1] was less than 1000 nM.
At Truncated mTOR kinase, `Nc1ncc(-c2nc(N3CCOCC3)nc3c2ncn3C2CCNC2)cn1` (stereo not drawn) [Compound 28] came in with an IC50 of 1000 to 5000 nM.
Turning to `Nc1ncc(-c2nc(N3CCOCC3)nc3c2ncn3C2CCOC2)cn1` (stereo not drawn) [Compound 18], the IC50 against Truncated mTOR kinase was less than 1000 nM; in the experiment with PC3 cells it was no more than 1000 nM.
For the compound `Cc1nc(N)ncc1-c1nc(N2CCOCC2)nc2c1ncn2C(C)c1ccccc1` (stereo not drawn) [Compound 17], the values for the half-maximal inhibitory concentration (IC50) (against Truncated mTOR kinase; in experiment [1]) were greater than 5000 nM and less than 1000 nM, respectively.
The like results for `Cc1ccc(C(=O)N2CCC(n3cnc4c(-c5cnc(N)nc5)nc(N5CCOCC5)nc43)C2)s1` (stereo not drawn) [Compound 33, {3-[6-(2-Amino-pyrimidin-5-yl)-2-morpholin-4-yl-purin-9-yl]-pyrrolidin-1-yl}-(5-methyl-thiophen-2-yl)-methanone] were, in that order, less than 1000 nM and less than 1000 nM.
`CCC(C)n1cnc2c(-c3cnc(N)nc3)nc(N3CCOCC3)nc21` (stereo not drawn) [Compound 26]: the 50% inhibitory concentration (IC50) in the experiment with PC3 cells was no more than 1000 nM.
Regarding `Nc1ncc(-c2nc(N3CCOCC3)nc3[nH]cnc23)cn1` [Compound 34], the IC50 against Truncated mTOR kinase is 1000 to 5000 nM; in experiment [1], less than 1000 nM.
The like results for `Nc1ncc(-c2nc(N3CCOCC3)nc3c2ncn3C2CCc3ccccc3C2)cn1` (stereo not drawn) [Compound 30] were, in that order, less than 1000 nM and less than 1000 nM.
Turning to `COCC(C)n1cnc2c(-c3cnc(N)nc3OC)nc(N3CCOCC3)nc21` (stereo not drawn) [Compound 13], the half-maximal inhibitory concentration (IC50) was 1000 to 5000 nM at Truncated mTOR kinase and less than 1000 nM in experiment [1].
Consider `CO[C@H]1C[C@@H]2CC[C@@H](C)[C@@](O)(O2)C(=O)C(=O)N2CCCC[C@H]2C(=O)O[C@H]([C@H](C)C[C@@H]2CC[C@@H](OCCO)[C@H](OC)C2)CC(=O)[C@H](C)/C=C(\C)[C@@H](O)[C@@H](OC)C(=O)[C@H](C)C[C@H](C)/C=C/C=C/C=C/1C` [RAD001, 40-O-(2-hydroxyethyl)-rapamycin], for which, in the experiment on human cancer cell lines, the 50% inhibitory concentration (IC50) was 5 to 1800 nM.
On to `CCC(CC)n1cnc2c(-c3cnc(N)nc3)nc(N3CCOCC3)nc21` [Compound 24], for which the 50% inhibitory concentration (IC50) (on Truncated mTOR kinase; in experiment [1]) was less than 1000 nM in each case.

The values are drawn from US20140066620A1, “PYRIMIDINE SUBSTITUTED PURINE DERIVATIVES” (VERASTEM, INC., priority 2007, published 2014).
